The record followed here is patent US20240067668A1, “HETEROARYL DERIVATIVE COMPOUND AND USE THEREOF” (VORONOI INC., priority 2020, published 2024).

In test [1] the test system is BaF3-EGFR (Del19/T790M/C797S) cells. As to the kind of experiment: Inhibitory activity on Ba/F3 cell proliferation (CellTiter-Glo, 72 hours). Type of test: cell-based. The following applies: Ba/F3 cells expressing EGFR Del19/T790M/C797S. The method, boiled down:
(§1)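 Ba/F3 cells expressing wild-type EGFR or EGFR Del19/T790M/C797S, 3×10^3 per well, exposed 72 h at 37 °C to compound at 12 threefold dilutions, 0.00005-10 μM final. Viability by CellTiter-Glo 2.0; GI50 derived from growth relative to DMSO-treated cells.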

The next test concerns BaF3-EGFR (WT) cells. The test is described as above. Type of test: cell-based. The following applies: Ba/F3 cells expressing EGFR WT. The method, boiled down: as §1
Another test has as its target EGFR Del19/T790M/C797S (Homo sapiens, UniProt P00533, C797S/T790M, form not given). As to the kind of experiment: Enzyme IC50, EGFR Del19/T790M/C797S. Format: biochemical.
Another test concerns the target T1, EGFR(S752-I759del) (Homo sapiens, UniProt P00533, DEL752-759).
T1 construct: purchased DiscoverX
As to the kind of experiment: scanMAX Kinase analysis panel (DiscoverX), control percentage. Type of test: binding. The settings on record: 1 μM in DMSO. The method, then:
(§2) The following experiments were performed to evaluate the inhibitory activity of compounds according to the present invention against various enzymes. Specifically, with respect to the compound of Example 2 selected from the Example Compounds of the present invention, the enzyme (kinase) selectivity was measured by requesting DiscoverX company, and the experiment was conducted using a scanMAX™ Kinase analysis panel. Here, the concentration of the drug treated with the enzyme was 1 μM in DMSO, and the control percentage (% control) was determined by the following Equation 1.
(§3) (Example Compound−positive control)/(negative control−positive control)×100 [Equation 1]
(§4) Here, the positive control indicates a compound showing the control percentage of 0%, and the negative control indicates DMSO showing the control percentage of 100%. Further, regarding the enzyme selectivity of the present invention, when the control percentage for each enzyme was <30% (i.e., less than 30%), the compound was determined to have the activity against the corresponding enzyme.

In another test the target is T2, EGFR (E746-A750del) (Homo sapiens, UniProt P00533, DEL746-750).
T2 construct: purchased DiscoverX
The test is described as above. Format: binding. The settings on record: 1 μM in DMSO. The method, then:
as §2, §3, §4

For the next test, the target named is T3, EGFR (T790M) (Homo sapiens, UniProt P00533, T790M).
T3 construct: purchased DiscoverX
The test is described as above. Type of test: binding. The following applies: 1 μM in DMSO. Here is the method:
as §2, §3, §4

For a further test, the target named is T4, EGFR (L858R, T790M) (Homo sapiens, UniProt P00533, L858R/T790M).
T4 construct: purchased DiscoverX
The description is as above. The following applies: 1 μM in DMSO. Type of test: binding. The method, then:
as §2, §3, §4

In a further test the target is T5, EGFR (G719S) (Homo sapiens, UniProt P00533, G719S).
T5 construct: purchased DiscoverX
Described as above. Format: binding. The settings on record: 1 μM in DMSO. The method, then:
as §2, §3, §4

Another test addresses T6, EGFR (Homo sapiens, UniProt P00533).
T6 construct: purchased DiscoverX
The test is described as above. Type of test: binding. The settings on record: 1 μM in DMSO. Here is the method: as §2, §3, §4

Test [2] concerns the target T7, EGFR (L747-E749del, A750P) (Homo sapiens, UniProt P00533, A750P/DEL747-749).
T7 construct: purchased DiscoverX
Described as above. Format: binding. The following applies: 1 μM in DMSO. The method, then:
as §2, §3, §4

Test [3] addresses T8, EGFR (L747-S752del, P753S) (Homo sapiens, UniProt P00533, DEL747-752/P753S).
T8 construct: purchased DiscoverX
Described as above. The following applies: 1 μM in DMSO. Type of test: binding. The method, then:
as §2, §3, §4

For another test, the target named is T9, EGFR (L861Q) (Homo sapiens, UniProt P00533, L861Q).
T9 construct: purchased DiscoverX
T9 sequence (P00533 25-1210 L861Q): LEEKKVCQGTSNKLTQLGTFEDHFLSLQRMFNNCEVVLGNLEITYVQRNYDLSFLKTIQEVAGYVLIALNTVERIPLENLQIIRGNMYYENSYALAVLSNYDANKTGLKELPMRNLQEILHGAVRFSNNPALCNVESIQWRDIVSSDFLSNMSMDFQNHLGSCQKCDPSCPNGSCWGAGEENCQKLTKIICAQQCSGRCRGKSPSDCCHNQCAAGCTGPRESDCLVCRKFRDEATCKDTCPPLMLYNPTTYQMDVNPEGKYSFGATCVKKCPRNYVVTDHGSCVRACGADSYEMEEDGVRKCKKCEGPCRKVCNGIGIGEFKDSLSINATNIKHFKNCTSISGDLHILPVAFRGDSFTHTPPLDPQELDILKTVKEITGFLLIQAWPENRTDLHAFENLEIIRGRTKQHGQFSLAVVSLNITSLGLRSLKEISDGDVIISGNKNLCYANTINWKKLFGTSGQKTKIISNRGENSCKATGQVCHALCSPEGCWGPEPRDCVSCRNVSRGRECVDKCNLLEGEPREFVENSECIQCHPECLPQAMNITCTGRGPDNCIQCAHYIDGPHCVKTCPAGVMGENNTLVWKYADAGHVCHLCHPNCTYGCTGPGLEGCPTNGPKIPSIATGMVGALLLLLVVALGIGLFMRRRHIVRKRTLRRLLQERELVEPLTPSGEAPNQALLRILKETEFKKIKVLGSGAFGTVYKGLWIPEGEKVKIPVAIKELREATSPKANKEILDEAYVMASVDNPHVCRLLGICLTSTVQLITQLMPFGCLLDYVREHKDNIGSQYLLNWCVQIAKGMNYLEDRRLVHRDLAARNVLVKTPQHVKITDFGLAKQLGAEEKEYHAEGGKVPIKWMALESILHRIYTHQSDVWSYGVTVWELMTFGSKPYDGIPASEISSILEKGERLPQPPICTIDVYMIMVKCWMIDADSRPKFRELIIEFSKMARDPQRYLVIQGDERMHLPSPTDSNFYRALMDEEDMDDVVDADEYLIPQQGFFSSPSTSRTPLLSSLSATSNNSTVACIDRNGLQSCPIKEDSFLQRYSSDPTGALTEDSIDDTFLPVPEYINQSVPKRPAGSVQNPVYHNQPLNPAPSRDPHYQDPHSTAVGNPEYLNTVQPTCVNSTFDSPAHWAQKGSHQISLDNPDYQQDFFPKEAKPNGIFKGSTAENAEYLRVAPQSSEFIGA
Described as above. The following applies: 1 μM in DMSO. Format: binding. Here is the method: as §2, §3, §4

For test [4], the system named is EGFR (L747-T751del, Sins). Described as above. Type of test: binding. The following applies: 1 μM in DMSO. Here is the method: as §2, §3, §4
The next test addresses T10, EGFR (L858R) (Homo sapiens, UniProt P00533, L858R).
T10 construct: purchased DiscoverX
Described as above. The following applies: 1 μM in DMSO. Format: binding. Here is the method: as §2, §3, §4

The next test has as its target T11, EGFR (G719C) (Homo sapiens, UniProt P00533, G719C).
T11 construct: purchased DiscoverX
The description is as above. Type of test: binding. The following applies: 1 μM in DMSO. The method, then: as §2, §3, §4

Chain of EGFR Del19/T790M/C797S (P00533 25-1210 T790M/C797S, form open): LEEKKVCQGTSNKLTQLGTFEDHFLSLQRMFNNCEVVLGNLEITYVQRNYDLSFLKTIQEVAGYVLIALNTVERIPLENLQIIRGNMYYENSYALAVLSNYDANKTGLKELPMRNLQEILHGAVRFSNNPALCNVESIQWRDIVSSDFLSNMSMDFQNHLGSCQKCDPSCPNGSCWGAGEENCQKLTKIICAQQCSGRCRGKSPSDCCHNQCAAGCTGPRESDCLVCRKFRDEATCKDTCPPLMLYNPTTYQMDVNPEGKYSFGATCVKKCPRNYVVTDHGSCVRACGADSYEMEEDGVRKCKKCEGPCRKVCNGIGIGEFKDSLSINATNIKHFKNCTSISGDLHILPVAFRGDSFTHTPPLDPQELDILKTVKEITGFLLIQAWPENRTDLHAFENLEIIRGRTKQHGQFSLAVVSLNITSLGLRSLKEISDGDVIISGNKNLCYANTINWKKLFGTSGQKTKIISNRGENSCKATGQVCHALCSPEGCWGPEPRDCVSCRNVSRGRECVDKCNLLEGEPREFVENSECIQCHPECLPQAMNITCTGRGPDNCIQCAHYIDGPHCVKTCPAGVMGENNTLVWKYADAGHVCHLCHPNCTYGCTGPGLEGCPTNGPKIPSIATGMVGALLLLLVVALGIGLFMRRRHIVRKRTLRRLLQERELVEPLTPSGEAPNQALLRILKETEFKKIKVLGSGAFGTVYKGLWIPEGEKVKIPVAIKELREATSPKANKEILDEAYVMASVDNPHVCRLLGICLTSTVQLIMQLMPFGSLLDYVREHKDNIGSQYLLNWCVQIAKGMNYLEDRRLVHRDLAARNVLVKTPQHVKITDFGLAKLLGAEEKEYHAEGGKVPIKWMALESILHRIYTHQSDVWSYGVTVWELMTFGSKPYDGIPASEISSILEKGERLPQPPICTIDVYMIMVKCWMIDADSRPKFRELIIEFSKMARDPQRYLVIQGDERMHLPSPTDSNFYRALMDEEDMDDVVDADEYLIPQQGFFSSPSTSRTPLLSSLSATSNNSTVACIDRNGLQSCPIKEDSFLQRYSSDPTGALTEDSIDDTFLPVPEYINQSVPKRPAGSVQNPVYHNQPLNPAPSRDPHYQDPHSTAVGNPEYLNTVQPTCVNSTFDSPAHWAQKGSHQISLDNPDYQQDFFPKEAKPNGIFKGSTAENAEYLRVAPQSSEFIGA
T6 sequence (P00533 25-1210): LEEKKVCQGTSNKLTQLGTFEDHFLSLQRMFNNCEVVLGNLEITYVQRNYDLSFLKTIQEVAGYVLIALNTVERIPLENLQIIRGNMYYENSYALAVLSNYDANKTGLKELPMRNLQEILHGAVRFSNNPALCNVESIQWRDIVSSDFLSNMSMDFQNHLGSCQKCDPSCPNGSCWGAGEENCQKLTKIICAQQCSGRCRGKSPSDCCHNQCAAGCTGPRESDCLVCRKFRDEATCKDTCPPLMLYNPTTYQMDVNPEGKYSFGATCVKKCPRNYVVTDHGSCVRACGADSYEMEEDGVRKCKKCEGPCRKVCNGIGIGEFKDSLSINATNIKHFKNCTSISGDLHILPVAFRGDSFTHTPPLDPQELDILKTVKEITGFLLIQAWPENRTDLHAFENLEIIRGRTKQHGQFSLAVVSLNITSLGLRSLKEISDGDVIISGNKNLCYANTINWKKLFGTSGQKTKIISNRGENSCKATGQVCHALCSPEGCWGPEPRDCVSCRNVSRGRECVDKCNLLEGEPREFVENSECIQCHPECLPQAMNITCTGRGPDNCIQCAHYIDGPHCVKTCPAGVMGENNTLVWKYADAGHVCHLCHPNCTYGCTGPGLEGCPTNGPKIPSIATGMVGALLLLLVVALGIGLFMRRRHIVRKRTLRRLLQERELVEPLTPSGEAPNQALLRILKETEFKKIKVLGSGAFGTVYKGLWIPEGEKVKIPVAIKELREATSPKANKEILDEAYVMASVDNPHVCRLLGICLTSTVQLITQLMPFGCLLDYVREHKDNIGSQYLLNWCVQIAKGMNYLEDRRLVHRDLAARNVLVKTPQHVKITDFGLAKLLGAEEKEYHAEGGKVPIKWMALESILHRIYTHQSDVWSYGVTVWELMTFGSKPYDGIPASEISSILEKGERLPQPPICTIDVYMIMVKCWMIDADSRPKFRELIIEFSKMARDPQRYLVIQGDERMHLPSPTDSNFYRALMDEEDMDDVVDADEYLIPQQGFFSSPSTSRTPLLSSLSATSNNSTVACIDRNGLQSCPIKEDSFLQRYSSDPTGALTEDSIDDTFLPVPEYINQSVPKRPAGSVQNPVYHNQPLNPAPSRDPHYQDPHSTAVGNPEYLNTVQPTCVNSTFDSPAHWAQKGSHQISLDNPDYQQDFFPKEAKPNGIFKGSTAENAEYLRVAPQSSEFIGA
T1 sequence (P00533 with tags, fused parts or gaps DEL752-759): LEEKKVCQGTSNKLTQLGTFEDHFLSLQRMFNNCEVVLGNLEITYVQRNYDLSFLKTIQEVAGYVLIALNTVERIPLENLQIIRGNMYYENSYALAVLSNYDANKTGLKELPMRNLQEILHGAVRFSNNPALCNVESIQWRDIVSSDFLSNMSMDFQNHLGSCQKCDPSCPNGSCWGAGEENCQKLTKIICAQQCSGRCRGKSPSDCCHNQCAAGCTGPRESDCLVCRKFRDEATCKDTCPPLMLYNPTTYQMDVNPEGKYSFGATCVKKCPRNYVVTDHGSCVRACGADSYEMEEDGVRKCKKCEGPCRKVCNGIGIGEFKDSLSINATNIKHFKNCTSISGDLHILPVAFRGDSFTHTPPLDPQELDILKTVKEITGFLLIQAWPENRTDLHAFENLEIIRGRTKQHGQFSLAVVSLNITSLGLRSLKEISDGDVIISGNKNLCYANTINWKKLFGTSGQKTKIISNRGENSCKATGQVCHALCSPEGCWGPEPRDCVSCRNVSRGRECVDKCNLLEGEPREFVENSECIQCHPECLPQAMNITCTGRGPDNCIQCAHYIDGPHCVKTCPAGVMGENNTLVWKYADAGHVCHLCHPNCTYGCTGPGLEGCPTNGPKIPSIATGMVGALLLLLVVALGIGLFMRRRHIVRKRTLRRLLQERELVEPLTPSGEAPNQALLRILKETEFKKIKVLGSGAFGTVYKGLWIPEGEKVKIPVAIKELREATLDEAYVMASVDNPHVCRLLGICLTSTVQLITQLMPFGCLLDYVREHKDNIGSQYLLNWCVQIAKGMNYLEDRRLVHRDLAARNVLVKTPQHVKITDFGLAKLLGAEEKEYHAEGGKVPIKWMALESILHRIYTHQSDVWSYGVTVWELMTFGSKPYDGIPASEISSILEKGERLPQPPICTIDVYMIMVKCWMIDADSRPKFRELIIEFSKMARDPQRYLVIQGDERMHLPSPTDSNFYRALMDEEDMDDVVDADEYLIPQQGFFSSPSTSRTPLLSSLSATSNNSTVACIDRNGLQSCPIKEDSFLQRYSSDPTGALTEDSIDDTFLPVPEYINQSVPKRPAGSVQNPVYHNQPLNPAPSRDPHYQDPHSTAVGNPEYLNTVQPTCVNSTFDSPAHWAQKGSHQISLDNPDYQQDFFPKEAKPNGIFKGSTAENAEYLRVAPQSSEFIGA

For the molecule `COc1cc(N2CCC(N3CCN(C)CC3)CC2)c(C)cc1Nc1nc(Nc2ccc3nccnc3c2P(C)(C)=O)c2cc[nH]c2n1` [Example 54, (6-((2-((2-methoxy-5-methyl-4-(4-(4-methyl-piperazin-1-yl)piperidin-1-yl)phenyl)amino)-7H-pyrrolo[2,3-d]pyrimidin-4-yl)amino)quinoxalin-5-yl)dimethyl-phosphine oxide], the GI50 is ≤ 0.05 µM in [1] and > 0.1 µM with BaF3-EGFR (WT) cells. Besides, the IC50 against EGFR Del19/T790M/C797S is ≤ 0.05 µM. The remaining binding at 1 µM at EGFR(S752-I759del) is < 30%; at EGFR (E746-A750del), < 30%; on EGFR (T790M), < 30%; on EGFR (L858R, T790M), < 30%; at EGFR (G719S) it was < 30%; on EGFR it was < 30%. Besides, the remaining binding at 1 µM (in [2]; in test [3]; at EGFR (L861Q); on EGFR (L858R); at EGFR (G719C)) was < 30% throughout. The “control percentage (% control)” value in [4] was < 30%.
With `COc1cc(N2CCN(CC3(F)CC3)CC2)c(-c2cnn(C)c2)cc1Nc1nc(Nc2ccc3nccnc3c2P(C)(C)=O)c2cc[nH]c2n1` [Example 113, (6-((2-((4-(4-((1-fluorocyclo-propyl)methyl)piperazin-1-yl)-2-methoxy-5-(1-methyl-1H-pyrazol-4-yl)phenyl)amino)-7H-pyrrolo[2,3-d]pyrimidin-4-yl)amino)quinoxalin-5-yl)dimethyl-phosphine oxide], the GI50 in [1] is ≤ 0.05 µM; with BaF3-EGFR (WT) cells it was > 0.1 µM. Moreover, the IC50 on EGFR Del19/T790M/C797S was ≤ 0.05 µM.
For the molecule `COc1cc(N2CCC3(CCN(CC4(F)CC4)CC3)CC2)c(-c2cnn(C)c2)cc1Nc1nc(Nc2ccc3nccnc3c2P(C)(C)=O)c2cc[nH]c2n1` [Example 114, (6-((2-((4-(9-((1-fluorocyclo-propyl)methyl)-3,9-diazaspiro[5.5]undecan-3-yl)-2-methoxy-5-(1-methyl-1H-pyrazol-4-yl)phenyl)amino)-7H-pyrrolo[2,3-d]pyrimidin-4-yl)amino)quinoxalin-5-yl)dimethyl-phosphine oxide], the results for the GI50 (in [1]; with BaF3-EGFR (WT) cells) were ≤ 0.05 µM and > 0.1 µM, respectively. Also, on EGFR Del19/T790M/C797S, the IC50 is ≤ 0.05 µM.
With `COc1cc(N2CCN(C)CC2)c(-c2cnn(C3CC3)c2)cc1Nc1nc(Nc2ccc3nccnc3c2P(C)(C)=O)c2cc[nH]c2n1` [Example 115, (6-((2-((5-(1-cyclopropyl-1H-pyrazol-4-yl)-2-methoxy-4-(4-methylpiperazin-1-yl)phenyl)amino)-7H-pyrrolo[2,3-d]pyrimidin-4-yl)amino)quinoxalin-5-yl)dimethyl-phosphine oxide], the GI50 in test [1] is 0.05 to 0.1 µM; in the test with BaF3-EGFR (WT) cells, > 0.1 µM. In addition, the IC50 against EGFR Del19/T790M/C797S was ≤ 0.05 µM.
In the case of `CN1CCN(c2c(-c3cnn(C)c3)cc(Nc3nc(Nc4ccc5nccnc5c4P(C)(C)=O)c4cc[nH]c4n3)c3c2CCO3)CC1` [Example 116, dimethyl (6-((2-((5-(1-methyl-1H-pyrazol-4-yl)-4-(4-methyl-piperazin-1-yl)-2,3-dihydrobenzo-furan-7-yl)amino)-7H-pyrrolo[2,3-d]pyrimidin-4-yl)amino)quinoxalin-5-yl)phosphine oxide], the GI50 in test [1] is ≤ 0.05 µM; in the test with BaF3-EGFR (WT) cells, > 0.1 µM. The IC50 against EGFR Del19/T790M/C797S was ≤ 0.05 µM.
As for `CN1CCN(C2CCN(c3c(-c4cnn(C)c4)cc(Nc4nc(Nc5ccc6nccnc6c5P(C)(C)=O)c5cc[nH]c5n4)c4c3CCO4)CC2)CC1` [Example 117, dimethyl (6-((2-((5-(1-methyl-1H-pyrazol-4-yl)-4-(4-(4-methylpiperazin-1-yl)piperidin-1-yl)-2,3-dihydrobenzo-furan-7-yl)amino)-7H-pyrrolo[2,3-d]pyrimidin-4-yl)amino)quinoxalin-5-yl)phosphine oxide], the concentration for 50% growth inhibition (GI50) was ≤ 0.05 µM in [1] and > 0.1 µM with BaF3-EGFR (WT) cells. Besides, the IC50 at EGFR Del19/T790M/C797S was ≤ 0.05 µM.
For `Cn1cc(-c2cc(Nc3nc(Nc4ccc5nccnc5c4P(C)(C)=O)c4cc[nH]c4n3)c3c(c2N2CCC(N4CCOCC4)CC2)CCO3)cn1` [Example 120, dimethyl (6-((2-((5-(1-methyl-1H-pyrazol-4-yl)-4-(4-morpholino-piperidin-1-yl)-2,3-dihydrobenzo-furan-7-yl)amino)-7H-pyrrolo[2,3-d]pyrimidin-4-yl)amino)quinoxalin-5-yl)phosphine oxide], the GI50 is ≤ 0.05 µM in test [1] and 0.05 to 0.1 µM with BaF3-EGFR (WT) cells. Also, on EGFR Del19/T790M/C797S, the IC50 was ≤ 0.05 µM.
Regarding `Cc1cc(Nc2nc(Nc3ccc4nccnc4c3P(C)(C)=O)c3cc[nH]c3n2)c2c(c1N1CCOCC1)CCO2` [Example 122, dimethyl (6-((2-((5-methyl-4-morpholino-2,3-dihydrobenzo-furan-7-yl)amino)-7H-pyrrolo[2,3-d]pyrimidin-4-yl)amino)quinoxalin-5-yl)phosphine oxide], the GI50 (in test [1]; in the test on BaF3-EGFR (WT) cells) was > 0.1 µM throughout. In addition, at EGFR Del19/T790M/C797S, the IC50 is ≤ 0.05 µM.
`Cn1nccc1-c1ccc(Nc2nc(Nc3ccc4nccnc4c3P(C)(C)=O)c3cc[nH]c3n2)c2c1OCCO2` [Example 131, dimethyl (6-((2-((8-(1-methyl-1H-pyrazol-5-yl)-2,3-dihydrobenzo [b][1,4]dioxin-5-yl)amino)-7H-pyrrolo[2,3-d]pyrimidin-4-yl)amino)quinoxalin-5-yl)phosphine oxide]: the GI50 (in test [1]; in the test on BaF3-EGFR (WT) cells) was > 0.1 µM throughout. Further, the IC50 against EGFR Del19/T790M/C797S is > 0.1 µM.
`C=CC(=O)Nc1cc(Nc2nc(Nc3ccc4nccnc4c3P(C)(C)=O)c3cc[nH]c3n2)c2c(c1N1CCC(N3CCN(C4CC4)CC3)CC1)OCCO2` [Example 133, N-(5-(4-(4-cyclopropyl-piperazin-1-yl)piperidin-1-yl)-8-((4-((5-(dimethyl-phosphoryl)quinoxalin-6-yl)amino)-7H-pyrrolo[2,3-d]pyrimidin-2-yl)amino)-2,3-dihydrobenzo [b][1,4]dioxin-6-yl)acrylamide]: the GI50 is > 0.1 µM in [1] and ≤ 0.05 µM in the test with BaF3-EGFR (WT) cells. The IC50 against EGFR Del19/T790M/C797S was ≤ 0.05 µM.
For the molecule `CP(C)(=O)c1c(Nc2nc(Nc3cc([N+](=O)[O-])c(N4CCC(N5CCN(C6CC6)CC5)CC4)c4c3OCCO4)nc3[nH]ccc23)ccc2nccnc12` [Example 134, (6-((2-((8-(4-(4-cyclopropyl-piperazin-1-yl)piperidin-1-yl)-7-nitro-2,3-dihydrobenzo [b][1,4]dioxin-5-yl)amino)-7H-pyrrolo[2,3-d]pyrimidin-4-yl)amino)quinoxalin-5-yl)dimethyl-phosphine oxide], the GI50 in test [1] was > 0.1 µM; in the test with BaF3-EGFR (WT) cells, 0.05 to 0.1 µM. The IC50 against EGFR Del19/T790M/C797S was ≤ 0.05 µM.
Regarding `Cn1cc(-c2cc(N3CCOCC3)c3c(c2Nc2nc(Nc4ccc5nccnc5c4P(C)(C)=O)c4cc[nH]c4n2)OCCO3)cn1` [Example 135, dimethyl (6-((2-((6-(1-methyl-1H-pyrazol-4-yl)-8-morpholino-2,3-dihydrobenzo [b][1,4]dioxin-5-yl)amino)-7H-pyrrolo[2,3-d]pyrimidin-4-yl)amino)quinoxalin-5-yl)phosphine oxide], the GI50 (in [1]; with BaF3-EGFR (WT) cells) was > 0.1 µM throughout. Moreover, on EGFR Del19/T790M/C797S, the IC50 was > 0.1 µM.
As for `Cn1ncc(Nc2nc(Nc3ccc4nccnc4c3P(C)(C)=O)c3cc[nH]c3n2)c1Cl` [Example 137, (6-((2-((5-chloro-1-methyl-1H-pyrazol-4-yl)amino)-7H-pyrrolo[2,3-d]pyrimidin-4-yl)amino)quinoxalin-5-yl)dimethyl-phosphine oxide], the GI50 (in test [1]; in the test on BaF3-EGFR (WT) cells) was > 0.1 µM throughout. Besides, the concentration for half-maximal inhibition (IC50) at EGFR Del19/T790M/C797S is ≤ 0.05 µM.
